# Measurements reported in the supplement of paper PMC10307832.
# Key:
# Experiment in all cases: relative viability (nuclei count vs DMSO), 5 days (fraction); higher = more cells survive
# LCLC-103H = tested on: LCLC-103H
# Procedure, shortened: (§1)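 Dosing by pin tool came one day after lung cancer cell lines were seeded in 1536-well plates, using either one drug or a fixed anchor-drug dose plus five library-drug doses (not always all listed) in √10 steps. After 5 days, nuclei were counted on 4× images. Relative viability is treated-well nuclei count divided by vehicle-well nuclei count, and values are medians of duplicate plates.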
# LXF-289 = tested on: LXF-289
# Procedure, shortened: as §1
# NCI-H1355 = tested on: NCI-H1355
# Procedure, shortened: as §1
# NCI-H1651 = tested on: NCI-H1651
# Procedure, shortened: as §1
# NCI-H1755 = tested on: NCI-H1755
# Procedure, shortened: as §1
# NCI-H1915 = tested on: NCI-H1915
# Procedure, shortened: as §1
# NCI-H2170 = tested on: NCI-H2170
# Procedure, shortened: as §1
# NCI-H2347 = tested on: NCI-H2347
# Procedure, shortened: as §1
# NCI-H3122 = tested on: NCI-H3122
# Procedure, shortened: as §1
# NCI-H322M = tested on: NCI-H322M
# Procedure, shortened: as §1
# NCI-H441 = tested on: NCI-H441
# Procedure, shortened: as §1
# NCI-H460 = tested on: NCI-H460
# Procedure, shortened: as §1
# NCI-H520 = tested on: NCI-H520
# Procedure, shortened: as §1
# NCI-H522 = tested on: NCI-H522
# Procedure, shortened: as §1
# NCI-H596 = tested on: NCI-H596
# Procedure, shortened: as §1
# NCI-H650 = tested on: NCI-H650
# Procedure, shortened: as §1
# NCI-H661 = tested on: NCI-H661
# Procedure, shortened: as §1
# NCI-H727 = tested on: NCI-H727
# Procedure, shortened: as §1
# PC-14 = tested on: PC-14
# Procedure, shortened: as §1
# RERF-LC-KJ = tested on: RERF-LC-KJ
# Procedure, shortened: as §1
# SK-MES-1 = tested on: SK-MES-1
# Procedure, shortened: as §1
# SW 900 = tested on: SW 900
# Procedure, shortened: as §1
structure (smiles),measurement,setting,value
CC(C)Oc1cc(Nc2nc(N[C@@H](C)c3ccc(F)cn3)ncc2Cl)n[nH]1 [AZ23] + Cc1cc(Nc2cc(N3CCN(C)CC3)nc(Sc3ccc(NC(=O)C4CC4)cc3)n2)n[nH]1 [Tozasertib] (partner 0.1 µM),relative viability,LCLC-103H; first compound 0.01 µM,0.467
same,relative viability,LCLC-103H; first compound 0.03162 µM,0.491
same,relative viability,LCLC-103H; first compound 0.3162 µM,0.559
same,relative viability,LXF-289; first compound 0.01 µM,0.222
same,relative viability,LXF-289; first compound 0.03162 µM,0.205
same,relative viability,LXF-289; first compound 0.3162 µM,0.204
same,relative viability,NCI-H1355; first compound 0.01 µM,0.507
same,relative viability,NCI-H1355; first compound 0.03162 µM,0.609
same,relative viability,NCI-H1355; first compound 0.3162 µM,0.597
same,relative viability,NCI-H1651; first compound 0.03162 µM,0.885
same,relative viability,NCI-H1651; first compound 0.3162 µM,0.71
same,relative viability,NCI-H1755; first compound 0.01 µM,0.556
same,relative viability,NCI-H1755; first compound 0.03162 µM,0.613
same,relative viability,NCI-H1755; first compound 0.3162 µM,0.664
same,relative viability,NCI-H1915; first compound 0.01 µM,0.479
same,relative viability,NCI-H1915; first compound 0.03162 µM,0.507
same,relative viability,NCI-H1915; first compound 0.3162 µM,0.514
same,relative viability,NCI-H2170; first compound 0.01 µM,0.836
same,relative viability,NCI-H2170; first compound 0.03162 µM,0.752
same,relative viability,NCI-H2170; first compound 0.3162 µM,0.831
same,relative viability,NCI-H2347; first compound 0.01 µM,0.645
same,relative viability,NCI-H2347; first compound 0.03162 µM,0.609
same,relative viability,NCI-H2347; first compound 0.3162 µM,0.604
same,relative viability,NCI-H3122; first compound 0.01 µM,0.504
same,relative viability,NCI-H3122; first compound 0.03162 µM,0.456
same,relative viability,NCI-H3122; first compound 0.3162 µM,0.52
same,relative viability,NCI-H322M; first compound 0.03162 µM,0.501
same,relative viability,NCI-H322M; first compound 0.3162 µM,0.434
same,relative viability,NCI-H441; first compound 0.01 µM,0.813
same,relative viability,NCI-H441; first compound 0.03162 µM,0.782
same,relative viability,NCI-H441; first compound 0.3162 µM,0.609
same,relative viability,NCI-H460; first compound 0.01 µM,0.184
same,relative viability,NCI-H460; first compound 0.03162 µM,0.518
same,relative viability,NCI-H460; first compound 0.3162 µM,0.566
same,relative viability,NCI-H520; first compound 0.01 µM,0.455
same,relative viability,NCI-H520; first compound 0.03162 µM,0.485
same,relative viability,NCI-H520; first compound 0.3162 µM,0.475
same,relative viability,NCI-H522; first compound 0.01 µM,0.519
same,relative viability,NCI-H522; first compound 0.03162 µM,0.567
same,relative viability,NCI-H522; first compound 0.3162 µM,0.65
same,relative viability,NCI-H596; first compound 0.01 µM,1
same,relative viability,NCI-H596; first compound 0.03162 µM,0.826
same,relative viability,NCI-H596; first compound 0.3162 µM,0.827
same,relative viability,NCI-H650; first compound 0.01 µM,0.728
same,relative viability,NCI-H650; first compound 0.03162 µM,0.75
same,relative viability,NCI-H650; first compound 0.3162 µM,0.802
same,relative viability,NCI-H661; first compound 0.01 µM,0.366
same,relative viability,NCI-H661; first compound 0.03162 µM,0.354
same,relative viability,NCI-H661; first compound 0.3162 µM,0.353
same,relative viability,NCI-H727; first compound 0.01 µM,0.754
same,relative viability,NCI-H727; first compound 0.03162 µM,0.679
same,relative viability,NCI-H727; first compound 0.3162 µM,0.37
same,relative viability,PC-14; first compound 0.01 µM,0.428
same,relative viability,PC-14; first compound 0.03162 µM,0.656
same,relative viability,PC-14; first compound 0.3162 µM,0.696
same,relative viability,RERF-LC-KJ; first compound 0.01 µM,0.532
same,relative viability,RERF-LC-KJ; first compound 0.03162 µM,0.569
same,relative viability,RERF-LC-KJ; first compound 0.3162 µM,0.572
same,relative viability,SK-MES-1; first compound 0.03162 µM,1.1
same,relative viability,SK-MES-1; first compound 0.3162 µM,0.942
same,relative viability,SW 900; first compound 0.01 µM,0.536
same,relative viability,SW 900; first compound 0.03162 µM,0.654
same,relative viability,SW 900; first compound 0.3162 µM,0.532
